Assay results as given in US20260327264A1, “PEPTIDE INHIBITORS OF INTERLEUKIN-23 RECEPTOR” (Zealand Pharma A/S, priority 2023, published 2026).
Where two headings read alike, the source gives them in different places. *1 amine or outer side, *2 acyl side, *3 side chain or, on linkers, in order; H or OH if unused. Where a SMILES comes first, the peptide text is derived from it. Bridges are numbered along the chain shown (N, C = ends). [ ]: non-standard residue; d: D form. 2Nal = N[C@@H](Cc1ccc2ccccc2c1)C(=O)O; AEF = NCCOc1ccc(C[C@H](N)C(=O)O)cc1; X1 = O=C(Cc1ccc(CN[*:1])cc1)[*:2]; 3Pal = N[C@@H](Cc1cccnc1)C(=O)O; αMeL = CC(C)C[C@](C)(N)C(=O)O; Dab = NCC[C@H](N)C(=O)O; Sar = CNCC(=O)O

Legend:
human IL-23R = target: T1, human IL-23R (Homo sapiens, UniProt Q5VWK5); test: Binding assay: displacement of fluorophore (TAMRA)-labelled reference compound from human IL-23R (BRET, Nluc-IL23R fusion protein membranes); conditions: for potency of the compound (in words): potency against IL-23R; for Emax: read-out: % displacement (hIL-23R binding)
T1 construct: Nanoluc luciferase (Nluc); secretion signal encoded by the plasmid (not specified); expressed in transfected cells; crude membranes used in the assay
T1 sequence (Q5VWK5 22-629): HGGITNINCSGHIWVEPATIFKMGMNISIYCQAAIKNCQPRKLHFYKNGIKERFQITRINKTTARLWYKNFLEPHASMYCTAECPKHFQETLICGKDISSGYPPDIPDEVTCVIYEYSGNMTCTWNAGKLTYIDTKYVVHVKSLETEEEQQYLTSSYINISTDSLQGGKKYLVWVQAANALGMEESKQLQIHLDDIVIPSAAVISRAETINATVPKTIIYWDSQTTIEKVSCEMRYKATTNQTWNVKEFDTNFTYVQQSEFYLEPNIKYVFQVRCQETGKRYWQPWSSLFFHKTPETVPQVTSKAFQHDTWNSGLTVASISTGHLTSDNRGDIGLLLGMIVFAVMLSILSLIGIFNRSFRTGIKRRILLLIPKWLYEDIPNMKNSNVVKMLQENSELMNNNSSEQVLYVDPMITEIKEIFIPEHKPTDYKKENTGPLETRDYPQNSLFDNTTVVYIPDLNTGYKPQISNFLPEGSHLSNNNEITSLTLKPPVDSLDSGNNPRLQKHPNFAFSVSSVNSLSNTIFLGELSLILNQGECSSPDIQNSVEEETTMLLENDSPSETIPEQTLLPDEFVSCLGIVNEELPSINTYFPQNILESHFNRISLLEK
From the text: The assay principle relies on Bioluminescence Resonance Energy Transfer (BRET) between a fluorophore-labelled reference compound binding to the IL-23R part of a fusion protein consisting of the IL-23R fused to a Nanoluc luciferase enzyme (Nanoluc). The Nanoluc is placed in the N-terminus in close proximity to the binding domain of the ligand. Upon close proximity between the fluorophore of the fluorophore-labelled compound and the Nanoluc of the fusion protein, bioluminescence energy generated from conversion of a Nanoluc substrate, is transferred to the fluorophore resulting in an increase in BRET. In presence of an unlabelled compound, the unlabelled compound displaces the fluorophore-labelled peptide from its binding site resulting in a decrease in BRET. The concentration for which half of the fluorophore-labelled peptide is displaced by the unlabelled compound depends on the affinity of the compound for the IL-23R, and is termed the IC50 concentration.
The plasmid also contained a gene to confer resistance for the antibiotic hygromycin. A cell line stably expressing the Nluc-IL23R fusion protein was generated by transfection of HEK293 cells with the expression plasmid and selected with hygromycin for 3 weeks in Growth medium consisting of DMEM w/Glutamax-I containing, 10% V/V FBS, 1% V/V P/S, 1 mM Sodium Pyruvate, and 1× NEAA, and 0.3 mg/mL hygromycin. The remaining cells were propagated and considered a stable expressing Nluc-IL23R fusion protein pool clone.
Cells expressing the Nluc-IL23R fusion protein were expanded in Growth medium and membranes prepared by homogenization of a cell pellet from 18 T175 flasks (4° C. in subsequent steps). The cell pellet was lysed Tris 10 mM, 7.5, 1 mM EDTA and protease inhibitors (Complete, Roche) and homogenized using a 15 mL glass-dounce by 50 strokes. The homogenate was spun at spin @1500 rpm for 10 min, the supernatant transferred to SV-34 tubes and spun at 40000 g for 20 min at 4° C. to pellet the crude membranes. The supernatant was then removed, the pellet resuspended in 5 mL buffer containing 50 mM HEPES pH 7.4, 5 mM EGTA, and 5 mM MgCl2, and homogenized. Aliquots of the resuspended and homogenized membranes containing the Nluc-IL23R fusion protein were stored at −80° C. until use.
The plate was sealed with light impermeable plate seals, and incubated on an orbital shaker 400 rpm for 2 hours at room temperature. To determine the BRET ratio, the plate seal was removed and 25 μL of the Nanoluc substrate (Promega N1572) diluted 1:500 was added to each well and incubated for 1-2 minutes on an orbital shaker at 400 rpm. […] The BRET ratio was calculated as the fluorescence from the TAMRA/nanoluc bioluminescence.
Compound potency (IC50) and maximal displacement (% displacement) were estimated by computer-aided curve fitting using a 4-parameter logistic (4PL) non-linear model. The IC50 and maximal for each compound was determined by computer-aided curve fitting using a 4-parameter logistic (4PL) non-linear model.

[1] = test system: IL-23 mediated STAT3 signalling (DB cells); test: Functional inhibition of IL-23 mediated STAT3 signalling (phospho-STAT3 Tyr705) in DB cells; assay type: cell-based, human; conditions: for hIL-23 (pSTAT3) antagonist % inhibition: Table 3-2, maximal inhibitory response, EC80 of hIL-23
Outline: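 DB cells preincubated 15 min with inhibitor at 37° C, 5% CO2, then stimulated 90 min with hIL-23 at EC80. Lysate phospho-STAT3 measured by MSD electrochemiluminescence. Signal normalized to IL-23-alone and buffer wells; IC50 and maximal inhibition from concentration–response curves.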

[2] = EC80 of hIL-23, read-out: IC50 (pSTAT3)
[3] = Table 3-2, EC80 of hIL-23, read-out: hIL-23 (pSTAT3) antagonist IC50

potency of the compound (in words) (human IL-23R)	Emax (human IL-23R) [%]	IC50 [1, 2] [nM]	IC50 [1, 3] [nM]	IC50 (human IL-23R) [nM]	SMILES	hIL-23 (pSTAT3) antagonist % inhibition [1] [%]
–	96	–	0.042	0.011	CNC(=O)CC[C@@H]1NC(=O)[C@H](Cc2c[nH]c3ccccc23)NC(=O)[C@@H]2CCC(=O)NCC[C@H](NC1=O)C(=O)N[C@@H](Cc1ccc(OCCN)cc1)C(=O)N[C@@H](Cc1ccc3ccccc3c1)C(=O)N[C@@](C)(CC(C)C)C(=O)N[C@H](C(=O)N[C@@H](CCN)C(=O)N[C@@H](Cc1cccnc1)C(=O)NC)CCC(=O)NCc1ccc(cc1)CC(=O)N[C@@H](CO)C(=O)N2 [Compound 29, [4-Aminomethyl-phenylacetyl](1c)*SE(2c)W[Q(Me)][Dab](2c)[Y(2-aminoethoxy)][2-Nal][2-Me-Leu]E(1c)[Dab][3-(3-Pyridyl)-Ala]-[NHMe]] ([X1]SEWE(NHMe)[Dab][AEF][2Nal][αMeL]E[Dab][3Pal]-NHMe; lactam 3-6, N-10)	99
–	101	–	0.54	–	CNC(=O)[C@H](Cc1cccnc1)NC(=O)[C@H](CCN)NC(=O)[C@@H]1CCC(=O)NCc2ccc(cc2)CC(=O)N[C@@H](C)C(=O)N[C@H]2CCC(=O)NCC[C@H](NC(=O)[C@H](CCC(N)=O)NC(=O)[C@H](Cc3c[nH]c4ccccc34)NC2=O)C(=O)N[C@@H](Cc2c[nH]c3ncccc23)C(=O)N[C@@H](Cc2ccc3ccccc3c2)C(=O)NC(C)(C)C(=O)N1 [Compound 43, [4-Aminomethyl-phenylacetyl](1c)*AE(2c)WQ[Dab](2c)[7-AzaTrp][2-Nal][Aib]E(1c)[Dab][3-(3-Pyridyl)-Ala]-[NHMe]]	98

The next lines start with the compound.

SMILES	potency of the compound (in words) (human IL-23R)	Emax (human IL-23R) [%]	IC50 [1, 2] [nM]	IC50 [1, 3] [nM]	IC50 (human IL-23R) [nM]	hIL-23 (pSTAT3) antagonist % inhibition [1] [%]
CNC(=O)[C@H](Cc1cccnc1)NC(=O)[C@H](CCN)NC(=O)[C@@H]1CCC(=O)NCc2ccc(cc2)CC(=O)N[C@@H](CO)C(=O)N[C@H]2CCC(=O)NCC[C@H](NC(=O)[C@H](CCC(N)=O)NC(=O)[C@H](Cc3c[nH]c4ccccc34)NC2=O)C(=O)N[C@@H](Cc2ccc(OCCN)cc2)C(=O)N[C@@H](Cc2ccc3ccccc3c2)C(=O)N[C@@](C)(CC(C)C)C(=O)N1 [Compound 8, [4-Aminomethyl-phenylacetyl](1c)*SE(2c)WQ[Dab](2c)[Y(2-aminoethoxy)][2-Nal][2-Me-Leu]E(1c)[Dab][3-(3-Pyridyl)-Ala]-[NHMe]]	particularly potent	103	0.053	0.053	–	101
CC(C)C[C@]1(C)NC(=O)[C@H](Cc2ccc3ccccc3c2)NC(=O)[C@H](Cc2ccc(OCCN)cc2)NC(=O)[C@@H]2CCNC(=O)CC[C@H](NC(=O)[C@H](CO)NC(=O)Cc3ccc(cc3)CNC(=O)CC[C@@H](C(=O)N[C@@H](CCN)C(=O)N[C@@H](Cc3cccnc3)C(=O)N(C)CC(N)=O)NC1=O)C(=O)N[C@@H](Cc1c[nH]c3ccccc13)C(=O)N[C@@H](CCC(N)=O)C(=O)N2 [Compound 9, [4-Aminomethyl-phenylacetyl](1c)*SE(2c)WQ[Dab](2c)[Y(2-aminoethoxy)][2-Nal][2-Me-Leu]E(1c)[Dab][3-(3-Pyridyl)-Ala][Sar]-[NH2]] ([X1]SEWQ[Dab][AEF][2Nal][αMeL]E[Dab][3Pal][Sar]-NH2; lactam 3-6, N-10)	particularly potent	100	0.025	0.025	–	97
CNC(=O)[C@H](Cc1cccnc1)NC(=O)[C@H](CCN)NC(=O)[C@@H]1CCC(=O)NCc2ccc(cc2)CC(=O)N[C@@H](C)C(=O)N[C@H]2CCC(=O)NCC[C@H](NC(=O)[C@H](CCC(N)=O)NC(=O)[C@H](Cc3c[nH]c4ccccc34)NC2=O)C(=O)N[C@@H](Cc2ccc(OCCN)cc2)C(=O)N[C@@H](Cc2ccc3ccccc3c2)C(=O)N[C@@](C)(CC(C)C)C(=O)N1 [Compound 20, [4-Aminomethyl-phenylacetyl](1c)*AE(2c)WQ[Dab](2c)[Y(2-aminoethoxy)][2-Nal][2-Me-Leu]E(1c)[Dab][3-(3-Pyridyl)-Ala]-[NHMe]]	–	97	–	0.026	–	101
